Reference: US20140107226A1, “METHODS FOR ENHANCING STABILITY OF POLYORTHOESTERS AND THEIR FORMULATIONS” (A.P. PHARMA, INC., priority 2008, published 2014)

Assay: Granisetron in human plasma after APF530 (clinical pharmacokinetics)
Format: in vivo
Conditions: chemo-patients, human trials (FIGS. 3 and 4)

clearance of granisetron: impaired clearance
SMILES: CN1C2CCCC1CC(NC(=O)c1nn(C)c3ccccc13)C2 (stereo not shown) [granisetron]
